For orientation: GI50 means the concentration at which growth is held to half of that of the control.

Experimental findings from ChEMBL document CHEMBL1201862, “PubChem BioAssay data set” (2004) are described below.

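Results reflect a 48-hour exposure of cells in 96-well plates to compound at five concentrations. GI50 is the concentration that inhibits growth by half.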 The source made the active and inactive calls. Cut-off read from the data, not from the text of the source: active = GI50 up to about 1.1 µM and inactive = higher. Some results are limits rather than exact numbers.

Among the test systems are 786-0; A549; ACHN; BT-549; HOP-62; HOP-92; K562; MCF7; MDA-MB-435; Malme-3M; NCI-H522; OVCAR-4; PC-3; SF-295; SK-MEL-28; SK-MEL-2; TK-10; UACC-257; SNB-75; RPMI-8226.
What all share (assay): DTP human tumour cell line panel, 48 h

Regarding `NC12CC3C4CC5(N)CC3C(C1)C(C5)C4C2`, the GI50 in the test on 786-0, in the test with A549, in the test with ACHN, with BT-549, with HOP-62 and in the test with HOP-92 was > 100 µM (inactive) each time. For the same compound, the GI50 in the test on K562, in the test on MCF7, with MDA-MB-435, with Malme-3M, in the test with NCI-H522 and in the test with OVCAR-4 was > 100 µM (inactive) in each case. For the same compound, the GI50 with PC-3, with SF-295, in the test on SK-MEL-28, in the test on SK-MEL-2, with TK-10 and in the test with UACC-257 was > 100 µM (inactive) in each case.
In the case of `COC(=O)C1C(=O)CC(C)(O)C(C(=O)OC)C1c1ccc(N(C)C)cc1` (stereo unspecified), the GI50 in the test on 786-0 is 12 µM (inactive); in the test with A549 it was > 100 µM (inactive); with ACHN, > 100 µM (inactive); in the test on BT-549, > 100 µM (inactive); in the test on HOP-62, > 100 µM (inactive); in the test with HOP-92, > 100 µM (inactive). Besides, the GI50 in the test with K562, with MCF7, in the test on MDA-MB-435, with Malme-3M, in the test with NCI-H522 and with OVCAR-4 was > 100 µM (inactive) in each case. The GI50 in the test with PC-3, in the test on SF-295, in the test with SK-MEL-28, in the test on SK-MEL-2, in the test on SNB-75 and with TK-10 was > 100 µM (inactive) in each case. The GI50 with UACC-257 was > 100 µM (inactive).
For the compound `Cc1ccc(CC2(C(=O)O)Cc3ccc(C)cc3C2)cc1` (stereo unspecified), the GI50 was > 100 µM (inactive) in the test with 786-0; 72.9 µM (inactive) in the test on A549; 94.4 µM (inactive) with ACHN; 65.3 µM (inactive) with BT-549; > 100 µM (inactive) with HOP-62; 61.7 µM (inactive) in the test on K562. Moreover, the GI50 in the test on MCF7 was > 100 µM (inactive); in the test with MDA-MB-435, > 100 µM (inactive); in the test with Malme-3M it was > 100 µM (inactive); in the test with NCI-H522, > 100 µM (inactive); in the test with OVCAR-4, > 100 µM (inactive); in the test on PC-3, 51.5 µM (inactive). Further, the GI50 in the test with RPMI-8226 is 69.3 µM (inactive); in the test with SF-295 it was 68.5 µM (inactive); in the test with SK-MEL-28, > 100 µM (inactive); in the test on SK-MEL-2, > 100 µM (inactive); in the test with SNB-75, > 100 µM (inactive); with TK-10, > 100 µM (inactive). For the same compound, the GI50 with UACC-257 was > 100 µM (inactive).
With `CCOc1ccc(/C=C2\NC(=S)N(/C=C3\C(=O)Oc4ccccc4C3=O)C2=O)cc1`, the GI50 with 786-0 is 19.2 µM (inactive); with A549 it was > 10 µM (inactive); with ACHN it was 25.5 µM (inactive); in the test on BT-549 it was 23.6 µM (inactive); with HOP-62 it was 26.1 µM (inactive); with HOP-92 it was 22.8 µM (inactive). Besides, the GI50 in the test on MCF7 is 17.8 µM (inactive); in the test on MDA-MB-435, 28.8 µM (inactive); in the test on NCI-H522 it was 20.7 µM (inactive); in the test with OVCAR-4, 28.1 µM (inactive); in the test on PC-3 it was 18.1 µM (inactive); with SF-295 it was 20.4 µM (inactive). Moreover, the GI50 is 36.8 µM (inactive) with SK-MEL-28; 17.3 µM (inactive) in the test on SK-MEL-2; 23 µM (inactive) in the test on SNB-75; 20.2 µM (inactive) in the test with TK-10; 26.6 µM (inactive) in the test on UACC-257.
Turning to `COc1cc(S(=O)(=O)Nc2nc(-c3ccc(N)cc3)cs2)ccc1Cl`, the GI50 in the test with 786-0 was > 100 µM (inactive); in the test on A549, 51.5 µM (inactive); in the test with ACHN it was 66.4 µM (inactive); in the test on BT-549, 51.9 µM (inactive); in the test on HOP-62 it was > 100 µM (inactive); in the test on HOP-92 it was 64.9 µM (inactive). In addition, the GI50 in the test with K562 is 58.2 µM (inactive); with MCF7, 36.8 µM (inactive); in the test with MDA-MB-435 it was 83.6 µM (inactive); with Malme-3M, > 100 µM (inactive); in the test on NCI-H522 it was 56 µM (inactive); with OVCAR-4 it was 34 µM (inactive). The GI50 is 51.8 µM (inactive) with PC-3; 43.4 µM (inactive) in the test on SF-295; 69.3 µM (inactive) with SK-MEL-28; 69.5 µM (inactive) with SK-MEL-2; > 100 µM (inactive) with SNB-75; 48 µM (inactive) in the test with TK-10. Also, the GI50 in the test with UACC-257 was 57.3 µM (inactive).
As for `O=C(NC1CCCCC1)c1nn[nH]c1Cl`, the GI50 in the test with 786-0, with A549, with ACHN, with BT-549, with HOP-62 and in the test on HOP-92 was > 100 µM (inactive) each time. Moreover, the GI50 in the test on K562, in the test with MCF7, in the test on MDA-MB-435, in the test with OVCAR-4, in the test with PC-3 and with SF-295 was > 100 µM (inactive) each time. Also, the GI50 with SK-MEL-28, in the test with SK-MEL-2, in the test with TK-10 and in the test with UACC-257 was > 100 µM (inactive) throughout.
For `CCCCCC(/C=N/NC(N)=S)C(O)(C(F)(F)F)C(F)(F)F` (stereo unspecified), the GI50 in the test with 786-0, in the test on A549, in the test on ACHN, in the test on BT-549, in the test with HOP-62 and with HOP-92 was > 10 µM (inactive) throughout. The GI50 in the test on K562, in the test on MCF7, in the test on MDA-MB-435, in the test with Malme-3M, with NCI-H522 and in the test with OVCAR-4 was > 10 µM (inactive) each time. Further, the GI50 in the test with PC-3, with SF-295, in the test on SK-MEL-28, with SK-MEL-2, with SNB-75 and with TK-10 was > 10 µM (inactive) in each case. In the test on UACC-257, the GI50 is > 10 µM (inactive).
Consider `O=C(CSc1nc2nncc-2c(O)[nH]1)c1ccc(Cl)cc1`, for which the GI50 in the test with 786-0, in the test with A549, in the test with ACHN, in the test with BT-549, in the test with HOP-62 and in the test with K562 was > 100 µM (inactive) each time. The GI50 with MCF7, in the test with MDA-MB-435, in the test on Malme-3M, in the test on NCI-H522, with OVCAR-4 and in the test on PC-3 was > 100 µM (inactive) in each case. Moreover, the GI50 with RPMI-8226 was > 100 µM (inactive); with SF-295, > 100 µM (inactive); with SK-MEL-28 it was > 100 µM (inactive); with SK-MEL-2, 75.3 µM (inactive); in the test on SNB-75, 0.246 µM (active); in the test on TK-10, > 100 µM (inactive). In addition, the GI50 with UACC-257 is > 100 µM (inactive).
